# Assay results as given in patent US8283481B2, “Inhibitors of a 9-cis epoxycarotenoid dioxygenase” (National Research Council of Canada, priority 2008, dated 2012).
# “Also recorded” adds a separate entry of the source.
# Experiments:
# [1] = biological target: T1, recombinant AtNCED3 (Arabidopsis thaliana, UniProt Q9LRR7); assay: Recombinant AtNCED3 in vitro enzyme assay (HPLC, cleavage of 9-cis-neoxanthin); assay type: biochemical; conditions: for relative inhibition of AtNCED3 activity (in words): in vitro enzyme assay, 1 mM concentration (FIG. 5); for Ki: Dixon plot, competitive inhibition, 0-250 μM inhibitor, 9-cis-neoxanthin at 50 (55), 30 and 10 μM
# T1 construct: glutathione-S-transferase (GST) (C); made in house; host or cells: E. coli BL21(DE3), pRL296 vector
# Excerpt: Fresh spinach was macerated under liquid nitrogen and extracted five times with three volumes of methanol/0.1% KOH. Samples were dried using a roto-evaporator, resuspended in acetone and then chilled on ice for one hour. The solvent was subsequently transferred to a new flask, roto-evaporated and resuspended in acetonitrile/acetone (1:1) mixture. The mixture was applied to a gravity flow column containing C-18 silica gel (Sigma) equilibrated in 65% acetonitrile/35% water (solvent C). The column was washed with 49% acetone (solvent D)/51% solvent A and 20 mL of 55% solvent D/45% solvent A while collecting 5 mL fractions. Fractions containing neoxanthin were pooled, dried, and resuspended in 100 μL of methanol. The pooled mixture was separated using an Agilent 1100 series HPLC and a Supelcosil™ LC-18 (25 cm×10 mm, 5 m) (Supelco) column equilibrated with solvent A. The HPLC method consisted of a linear gradient over 30 minutes from 100% solvent A to 100% solvent D with a flow rate of 4 mL/minute at 22° C. and monitored with a PDA detector at 436 nm. The neoxanthin fractions were collected, dried and resuspended in ethanol. Neoxanthin was quantified by determining its OD439 using a PerkinElmer Lambda 35 UV/VIS Spectrometer and applying its extinction coefficient of 2243 (A^1%1cm).^30
# AtNCED3 was over-expressed using the pRL296 expression vector (a gift from M. Cygler, BRI, Montreal) in E. coli (BL21)DE3 cells as a glutathione-S-transferase fusion protein and affinity purified using glutathione sepharose 4 fast flow resin (GE Healthcare) as described previously.^35 Essentially, cells were grown to an OD600 of 0.45 at 37° C. and 200 rpm shaking. The culture was induced with 1 mM isopropyl-β-d-thiogalactoside for 16 h at 15° C. and 200 rpm shaking. The cells were pelleted and resuspended in 50 mM Tris-HCl (pH 8.0) 1 mM DTT and 0.5% protease inhibitor cocktail set III (CalBiochem). Cells were lysed using a french press at 20,000 psi and affinity purified as per manufacturer's instructions (GE Healthcare). Protein concentration was determined by the method of Bradford.^36
# Enzymatic assays contained 100 mM Bis-Tris (pH 6.7), […], 10 mM ascorbate, 0.05% Triton™ X-100, catalase (1 mg/mL), neoxanthin and inhibitor to a total volume of 5 L of ethanol and 8 g AtNCED3 to a total assay volume of 100 L. Assays were incubated at 22° C. for 20 min. The assays were stopped with the addition of 50 L of 25% Triton™ X-100 and extracted with 150 L of ethyl acetate. All procedures were performed under red-light to minimize photo-induced damage to assay components and products.^6 Fine chemicals and solvents were purchased from Sigma-Aldrich. 75 μL of the assay extract was injected into an Agilent 1100 series HPLC machine equipped with a Supelcosil™ LC-18 (3.3 cm×4.6 mm, 3 m) (Supelco) column pre-equilibrated with 15% acetonitrile (solvent B)/85% water (solvent A). Solvent B increased to 35% over ten minutes, followed by a linear gradient of 65% solvent B to 100% solvent D over 10 minutes. Solvent D was maintained at 100% for 2 minutes and then the column was returned to 15% solvent B for 5 min. The flow rate was maintained at 1.5 mL/min. and monitored with a photodiode array (PDA) detector at 436 and 262 nm.
# Evaluation of recombinant AtNCED3 kinetic parameters for Km was accomplished using Michaelis-Menten equation plotted with EnzFitter™ v2.0.18.0 (Biosoft). The Ki for inhibitors was determined using a Dixon plot and concentration ranges of 250, 200, 150, 100, 50 and 0 μM inhibitor in the presence of either 55, 30 or 10 μM 9-cis-neoxanthin 2.^5
# [2] = tested on: Arabidopsis thaliana Col-0 seeds; assay: Seed germination assay; assay type: in vivo
# Description: Arabidopsis thaliana Col-0 seeds were sterilized by washing them with 10% sodium hypochlorite and 20% sodium dodecyl sulfate (Sigma) for five minutes and then rinsing four times with sterile water. Seeds were moist chilled for 4 days and then plated on germination medium (0.41% MS salts, 1% sucrose, 0.05% MES and 0.1% Gamborg's vitamins, pH 5.7, 0.7% agar) (Sigma) containing either 0.1, 0.33, 1.0 or 3.33 μM of inhibitor or (+)-ABA 1. As a control, seeds were sewn and germinated on media only without inhibitors or (+)-ABA 1. Germination was recorded over seven days and indexes calculated as described previously.^40
# [3] = tested on: ABA and catabolites in Arabidopsis thaliana Col-0 plants; assay: Total ABA metabolite levels in mannitol stressed plants treated with SLCCD inhibitors; assay type: in vivo; conditions: 33 μM inhibitor, mannitol stress, first 6 hours
# Description: For each condition to be tested, three hundred wild-type Arabidopsis thaliana Col-0 seeds (LEHLE) were sterilized, vernalized and sewn onto 200 mL of Sunshine Mix #3 (Sun Gro) potting material in an 8×8×4 cm pot. Plants were watered continuously with 25 g/100 mL of 20-20-20 (PlantProd™) fertilizer and grown at 22° C. with a 16 hour photoperiod for 22 days. Plants were pre-treated with 50 mL/pot of Buffer A (10 mM HEPES pH 6.5) (Sigma)+/−10 or 33 μM test compound for 2 hours. Plants were then soaked with 50 mL/pot of Buffer A containing 0.4 M mannitol (Sigma)+/−10 or 33 μM test compound. Non-treated/non-stressed control plants were simply soaked in Buffer A at the designated time points. […] Half of the tissue samples were lyophilized for metabolite profiling and the other half taken for quantitative reverse-transcription polymerase chain reaction (qRT-PCR) analysis.
# Freeze-dried tissue was homogenized using a multi-tube ball mill (Mini-BeadBeater-96™, Biospec Products Inc., Bartlesville, Okla., USA) and 50 mg of each sample was weighed out into individual Falcon tubes. To each sample, 100 μL of a cocktail of internal standards comprised of (−)-5,8′,8′,8′-d4-ABA, (−)-7′,7′,7′-d3-PA, (−)-5,8′,8′,8′-d4-7′OH ABA, (−)-7′,7′,7′-d3-DPA and (+)-4,5,8′,8′,8′-d5-ABAGE, each at a concentration of 0.2 ng/μL and dissolved in a mixture of water:acetonitrile (1:1, v/v) with 0.5% glacial acetic acid, was added. Further, 3 mL of isopropanol:water:glacial acetic acid (80:19:1, v/v/v) extraction solvent was added, and samples were placed in the fridge (4° C., in the dark) on an orbital shaker at about 350 rpm. After 18-24 hours, the samples were centrifuged at 4.4 krpm for 10 min, the supernatant was transferred to a disposable culture tube, and a second portion of 500 μL extraction solvent mixture was added to wash the pellet. After vortexing and centrifuging again at 4.4 krpm for 10 min, each wash was combined with its appropriate supernatant. The organic extract was dried under reduced pressure, then re-dissolved in 100 μL methanol:glacial acetic acid (99:1, v/v) followed by 900 μL of aqueous 1% glacial acetic acid. This mixture was extracted with 2 mL hexane, and then the aqueous layer was dried down under reduced pressure. The sample was further reconstituted in 2 mL aqueous 1% glacial acetic acid and loaded onto an Oasis MCX SPE cartridge (3 cc, Waters Corporation, Mississauga, Ontario, Canada). After a wash with 3 mL aqueous 1% glacial acetic acid, samples were eluted with 1 mL methanol:glacial acetic acid (99:1, v/v) and then dried down under reduced pressure. The extract was re-dissolved in 100 μL methanol:glacial acetic acid (99:1, v/v) followed by 900 μL of aqueous 1% glacial acetic acid. This mixture was further cleaned on an Oasis HLB SPE cartridge (1 cc, Waters Corporation, Mississauga, Ontario, Canada). After a wash with 1 mL aqueous 1% glacial acetic acid, the fraction containing ABA and ABA metabolites was eluted with 1 mL acetonitrile:water:glacial acetic acid (30:69:1, v/v/v) and then was evaporated to dryness. The final residue was dissolved in 200 μL of acetonitrile:water (15:85, v/v) containing 0.1% glacial acetic acid and 100 pg/μL (±)-3′,5′,5′,7′,7′,7′-d6-ABA as a recovery standard. Finally, the sample was subjected to LC-ES-MS/MS analysis and quantification, as described in Owen and Abrams, 2008.^39
# [4] = biological target: cowpea NCED enzyme; conditions: background, references 17, 18; read-out: Ki, competitive inhibition of cowpea NCED enzyme; cited from earlier work
# [5] = tested on: ABA metabolite accumulation; conditions: background, references 17, 18; cited from earlier work
# T1 sequence (Q9LRR7 41-599): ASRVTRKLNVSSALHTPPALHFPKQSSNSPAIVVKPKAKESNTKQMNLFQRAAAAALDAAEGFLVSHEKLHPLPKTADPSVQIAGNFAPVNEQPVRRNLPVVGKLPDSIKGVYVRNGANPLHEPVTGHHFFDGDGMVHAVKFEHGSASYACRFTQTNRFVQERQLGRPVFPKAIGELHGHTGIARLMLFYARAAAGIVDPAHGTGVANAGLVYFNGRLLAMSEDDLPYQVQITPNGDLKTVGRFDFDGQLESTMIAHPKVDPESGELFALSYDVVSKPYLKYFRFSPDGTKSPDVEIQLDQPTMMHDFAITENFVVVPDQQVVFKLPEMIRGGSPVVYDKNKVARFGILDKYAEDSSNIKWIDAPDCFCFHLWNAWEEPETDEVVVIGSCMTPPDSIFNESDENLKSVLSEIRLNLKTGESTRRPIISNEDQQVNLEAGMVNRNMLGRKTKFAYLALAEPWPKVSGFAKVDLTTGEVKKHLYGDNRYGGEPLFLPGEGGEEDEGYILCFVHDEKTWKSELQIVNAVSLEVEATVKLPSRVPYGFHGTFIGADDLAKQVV
compound,measurement,setting,value
"CC(=C/C=C/C(C)=C/C=C/C=C(C)/C=C/C=C(\C)C=C=C1C(C)(C)C[C@H](O)C[C@@]1(C)O)/C=C/[C@@]12O[C@]1(C)C[C@@H](O)CC2(C)C (relative stereo) [compound 2, 9-cis-Neoxanthin, reference compound]",Km,"[1]; cleavage of 9-cis-neoxanthin 2 by recombinant AtNCED3, Michaelis-Menten plot",24 µM
"CC1=CC(=O)CC(C)(C)C1(O)/C=C/C(C)=C\C(=O)O (single isomer, unassigned; (+)) [(+)-ABA 1, Abscisic acid, reference compound]",reduction of seed germination,[2]; 0.33 μM in germination medium,47%
same,reduction of seed germination,[2]; 1 μM in germination medium,61%
same,reduction of seed germination,[2]; highest concentration tested (3.33 μM),96%
"CCSC/C=C(/C)C#C[C@]1(O)[C@H](C)CC(=O)CC1(C)C [Compound 11, (4S,5R)-(3′Z)-4-(5′-(Ethylthio)-3′-methylpent-3′-en-1′-ynyl)-4-hydroxy-3,3,5-trimethylcyclohexanone]",relative inhibition of AtNCED3 activity (in words),[1],reduced activity
"CCSC/C=C(/C)C#C[C@@]1(O)[C@@H](C)CC(=O)CC1(C)C [Compound 12, (4R,5S)-(3′Z)-4-(5′-(Ethylthio)-3′-methylpent-3′-en-1′-ynyl)-4-hydroxy-3,3,5-trimethylcyclohexanone]",relative inhibition of AtNCED3 activity (in words),[1],completely inhibited; also recorded: inhibited the enzyme as strongly as the more xanthoxin-like compounds
"CCSC/C=C(/C)C#C[C@]1(O)[C@H](C)C[C@@H](O)CC1(C)C [Compound 14, (1S,4R,6R)-(3′Z)-1-(5′-(Ethylthio)-3′-methylpent-3′-en-1′-ynyl)-2,2,6-trimethylcyclohexane-1,4-diol]",relative inhibition of AtNCED3 activity (in words),[1],did not afford greater activity
"CCSC/C=C(/C)C#C[C@@]1(O)[C@H](C)C[C@@H](O)CC1(C)C [Compound 15, (1R,4R,6R)-(3′Z)-1-(5′-(Ethylthio)-3′-methylpent-3′-en-1′-ynyl)-2,2,6-trimethylcyclohexane-1,4-diol]",relative inhibition of AtNCED3 activity (in words),[1],did not afford greater activity
"COC(=O)CN(C/C=C/c1ccc(OC)c(OC)c1)Cc1ccc(F)cc1 [compound 9, Abamine, reference compound]",Ki,[1],132 µM
same,levels of ABA and catabolites at first time point (in words),[3],higher levels of ABA and catabolites at the first time point
same,Ki,[4],18.5 µM
same,reduction of ABA metabolite accumulation,[5],35%
Abamine SG [compound 10],Ki,[1],86 µM
same,Ki,[4],38.8 µM
same,reduction of ABA metabolite accumulation,[5],77%
